Assay results taken from patent publication US7214669B2, “Tetracycline derivatives and methods of use thereof” (Tetragenex Pharmaceuticals, Inc., priority 2001, dated 2007).

Legend:
[1] = target: Human recombinant MMP14 (Homo sapiens, UniProt P50281); test: MMP14 (MTI-MMP) inhibition, 14C collagen release; type: biochemical; conditions: 35° C., 15 hours; read-out: MMP-14 inhibitory activity, IC50
[2] = target: Human recombinant MMP3 (Homo sapiens, UniProt P08254); test: MMP3 (Stromelysin 1) inhibition, 14C casein release; type: biochemical; conditions: 37° C., 16 hours; read-out: MMP-3 inhibitory activity, IC50
Sequence of Human recombinant MMP3 (P08254 100-477): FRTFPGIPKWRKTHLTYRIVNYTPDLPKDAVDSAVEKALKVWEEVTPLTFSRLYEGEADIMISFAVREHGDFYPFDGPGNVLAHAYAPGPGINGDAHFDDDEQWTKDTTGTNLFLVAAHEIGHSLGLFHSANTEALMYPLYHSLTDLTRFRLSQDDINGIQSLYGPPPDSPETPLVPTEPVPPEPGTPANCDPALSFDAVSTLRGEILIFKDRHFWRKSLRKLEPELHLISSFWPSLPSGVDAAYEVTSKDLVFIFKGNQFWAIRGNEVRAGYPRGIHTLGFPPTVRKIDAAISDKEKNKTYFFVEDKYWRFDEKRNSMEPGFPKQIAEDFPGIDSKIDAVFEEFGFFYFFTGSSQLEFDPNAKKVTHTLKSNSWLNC

[3] = target: T1, Human recombinant MMP7 (Homo sapiens, UniProt P09237); test: MMP7 (Matrilysin) inhibition, 14C casein release; type: biochemical; conditions: 37° C., 16 hours; read-out: MMP-7 inhibitory activity, IC50
T1 sequence (P09237 95-267): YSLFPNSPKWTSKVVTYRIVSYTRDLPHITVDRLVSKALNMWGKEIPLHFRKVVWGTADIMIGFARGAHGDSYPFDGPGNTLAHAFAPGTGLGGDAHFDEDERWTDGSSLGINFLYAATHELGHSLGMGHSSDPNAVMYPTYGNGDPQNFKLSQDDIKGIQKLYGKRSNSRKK
Description: MMP7 activity was determined by the release of trichloracetic acid, TCA, soluble fragments from ^14C acetylated β casein (Sigma) as described in Methods in Enzymology 248, 451 (1995).
• 100 μg ^14C casein (7000 dpm) • 50 mM Tris HCl, pH 7.9 • 15 mM CaCl2, 0.02% azide • Human recombinant MMP7, 1.5 nM • ±tetracycline (up to 1 mM) in a total volume of 250 μl.
Incubations were at 37° C. for 16 hours. The incubation was stopped by the addition of 500 μl cold 18% TCA and standing on ice for 15 minutes. TCA precipitates were removed by centrifugation at 10,000 g for 10 minutes at 4° C., and 200 μl supernatant was taken for scintillation counting. Only data derived from within the linear part of the assay (10–60% lysis) were utilized. The percentage inhibition of MMP7 by each concentration of the candidate tetracycline were plotted to derive the IC50 value.

[4] = target: Human recombinant MMP9 (Homo sapiens, UniProt P14780); test: MMP9 (Gelatinase B) inhibition, 14C gelatin release; type: biochemical; conditions: 37° C., 16 hours; read-out: MMP-9 inhibitory activity, IC50
Sequence of Human recombinant MMP9 (P14780 94-707): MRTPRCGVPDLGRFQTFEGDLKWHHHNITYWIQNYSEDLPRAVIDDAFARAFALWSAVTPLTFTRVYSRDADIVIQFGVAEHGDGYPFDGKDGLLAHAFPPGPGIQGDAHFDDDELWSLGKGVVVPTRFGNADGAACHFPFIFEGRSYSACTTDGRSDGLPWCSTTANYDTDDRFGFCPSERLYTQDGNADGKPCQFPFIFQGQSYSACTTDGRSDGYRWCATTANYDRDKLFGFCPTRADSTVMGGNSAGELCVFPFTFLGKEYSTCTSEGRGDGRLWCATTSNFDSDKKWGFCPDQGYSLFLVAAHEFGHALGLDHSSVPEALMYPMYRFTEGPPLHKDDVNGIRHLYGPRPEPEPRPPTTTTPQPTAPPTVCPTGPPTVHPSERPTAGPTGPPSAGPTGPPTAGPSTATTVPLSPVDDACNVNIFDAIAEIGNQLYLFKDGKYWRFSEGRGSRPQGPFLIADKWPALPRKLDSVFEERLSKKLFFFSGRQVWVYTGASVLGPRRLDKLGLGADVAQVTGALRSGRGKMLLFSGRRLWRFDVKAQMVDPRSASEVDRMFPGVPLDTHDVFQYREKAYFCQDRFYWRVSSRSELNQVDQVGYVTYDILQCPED
Description: Protocol for Measuring MMP9 (Gelatinase B) Inhibition
MMP9 activity was determined by the release of trichloracetic acid, TCA soluble fragments from ^14C acetylated rat skin type I (Methods in Enzymology 248, 470, 1995. Biochem. J. 195, 1981)
• 100 μg ^14C labelled gelatin (collagen denatured 60° C. 20 min) • 50 mM Tris HCl pH 7.9 • 15 mM CaCl2, 0.02% azide • Human recombinant MMP9, 1.2–2 nM • ±Tetracycline (up to 1 mM) in a total volume of 250 μl.
Incubations were at 37° C. for 16 hours. The incubations were stopped by cooling the incubations and addition of 50 μl cold 90% (w/v) trichloracetic acid with careful mixing. TCA precipitation was allowed to proceed for 15 minutes at 4° C. prior to centrifugation at 10,000 g for 10 minutes at 4° C. 200 μl of the TCA supernatant was taken for the determination of radioactive content by scintillation counting (Packard Opti Phase Supermix scintillation fluid). Only data derived from within the linear part of the assay (10–70% lysis) were utilized. The percentage inhibition of MMP9 by each tetracycline concentration were plotted to derive the IC50 value.

[5] = test system: MDA-MB-231 human breast cancer cells; test: Membrane Invasion Culture System (MICS) chemo-invasion assay; type: cell-based; conditions: 24 hours, + = increased invasiveness
Summary of the method: (§1)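 Fifty thousand cells were seeded above a 35 μm laminin/collagen IV/gelatin barrier on a 10 μm-pore filter, with serum-free RPMI plus 50% fibroblast-conditioned medium below as chemoattractant. Compound at 1, 10 or 25 μg/ml, or DMSO vehicle, was present for 24 h. Invaded cells were collected, Wright-stained and counted over 5 fields.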

[6] = test system: RPMI-8226 human myeloma cancer cells; test: as above; type: cell-based; conditions: 24 hours, + = increased invasiveness
Summary of the method: as §1

[7] = test system: PC-3 ML human prostate cancer cells; test: as above; type: cell-based; conditions: 24 hours, + = increased invasiveness
Summary of the method: as §1

[8] = test system: C8161 human melanoma cells; test: as above; type: cell-based; conditions: 24 hours, + = increased invasiveness
Summary of the method: as §1

[9] = target: T2, MMP2 (Gelatinase A) (Homo sapiens, UniProt P08253); test: MMP2 (Gelatinase A) inhibition, 14C gelatin release; type: biochemical; conditions: 37° C., 16 hours; read-out: MMP-2 inhibitory activity, IC50
T2 sequence (P08253 110-660): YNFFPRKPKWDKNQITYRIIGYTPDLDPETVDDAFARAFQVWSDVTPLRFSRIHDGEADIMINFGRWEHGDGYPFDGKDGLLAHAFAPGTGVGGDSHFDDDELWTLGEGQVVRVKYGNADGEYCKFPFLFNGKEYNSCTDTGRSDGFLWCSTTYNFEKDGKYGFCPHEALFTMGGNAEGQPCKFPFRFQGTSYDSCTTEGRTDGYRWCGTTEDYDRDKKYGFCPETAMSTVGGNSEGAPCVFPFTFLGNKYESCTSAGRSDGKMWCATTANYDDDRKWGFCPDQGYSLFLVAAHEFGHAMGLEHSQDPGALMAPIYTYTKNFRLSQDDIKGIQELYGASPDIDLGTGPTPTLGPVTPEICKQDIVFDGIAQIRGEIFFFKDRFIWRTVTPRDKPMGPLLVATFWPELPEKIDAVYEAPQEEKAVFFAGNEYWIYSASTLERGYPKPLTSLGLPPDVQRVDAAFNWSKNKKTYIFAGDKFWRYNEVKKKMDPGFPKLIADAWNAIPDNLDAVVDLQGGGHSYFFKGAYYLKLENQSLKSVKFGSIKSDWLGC
Description: Protocol for Measuring MMP2 (Gelatinase A) Inhibition
MMP2 activity was determined by the release of trichloracetic acid, TCA, soluble fragments from ^14C acetylated rat skin type I gelatin (Methods in Enzymology 248, 470, 1995. Biochem. J. 195, 1981)
• 100 μg ^14C labelled gelatin (type I collagen denatured 60° C. 20 min) • 50 mM Tris HCl pH 7.9 • 15 mM CaCl2, 0.02% azide • Human recombinant MMP1, 0.1–0.5 nM • ±Tetracycline (up to 1 MM) in a total volume of 250 μl.
Incubations were set at 37° C. for 16 hours. The reaction was stopped by cooling the incubations and addition of 50 μl cold 90% (w/v) trichloracetic acid with careful mixing. TCA precipitation was allowed to proceed for 15 minutes at 4° C. prior to cetrifugation at 10,000 g for 10 minutes at 4° C. 200 μl of the TCA supernatant was taken for the determination of radioactive content by scintillation counting (Packard Opti Phase Supermix scintillation fluid). Only data derived from within the linear part of the assay (10–70% lysis) were utilized. The percentage inhibition of MMP2 by each tetracycline concentration was plotted to derive the IC50 value, using linear regression analysis.

[10] = target: T3, Human recombinant MMP1 (Homo sapiens, UniProt P03956); test: MMP1 (Collagenase-1) inhibition, 14C collagen release; type: biochemical; conditions: 35° C., 5 hours; read-out: MMP-1 inhibitory activity, IC50
T3 sequence (P03956 100-469): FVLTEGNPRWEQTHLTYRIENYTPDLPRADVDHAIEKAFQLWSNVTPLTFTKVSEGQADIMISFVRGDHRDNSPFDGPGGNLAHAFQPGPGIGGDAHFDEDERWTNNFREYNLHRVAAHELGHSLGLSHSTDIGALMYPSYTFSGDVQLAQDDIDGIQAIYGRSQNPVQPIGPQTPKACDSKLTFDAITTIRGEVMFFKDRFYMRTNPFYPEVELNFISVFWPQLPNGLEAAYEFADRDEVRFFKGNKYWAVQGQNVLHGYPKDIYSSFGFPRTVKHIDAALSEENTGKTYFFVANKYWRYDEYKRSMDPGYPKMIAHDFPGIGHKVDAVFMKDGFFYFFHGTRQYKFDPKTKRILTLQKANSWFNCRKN
Description: Protocol for Measuring MMP1 (Collagenase-1) Inhibition by Tetracycline Derivatives
MMP1 activity was determined by the release of soluble ^14C labelled collagen fragments from ^14C acetylated rat skin type I collagen (Methods in Enzymology 80 711, 1981).
• 100 μg ^14C labelled rat skin type I collagen (5–6000 dpm) • 50 mM Tris HCl pH 7.9 • 15 mM CaCl2 0.02% azide • Human recombinant MMP1 3–4 nM • ±Tetracycline (up to 1 mM) in a total volume of 300 μl.
Incubations were at 35° C. for 5 hours. Uncleaved collagen fibrils (which form within the first 10 minutes) were removed by centrifugation at 10,000 g, 4° C., 10 minutes. 200 μl supernatant were counted in Packard Opti Phase Supermix scintillation fluid using a scintillation counter. Only data derived from within the linear part of the assay (10–70% lysis of the collagen) were utilized. Based on percentage inhibition of the activity of MMP1 alone by a range of concentrations of each sample, the IC50 value for each tetracycline was calculated by linear regression analysis.

Compound | IC50 [1] [µM] | IC50 [2] [µM] | IC50 [3] [µM] | IC50 [4] [µM] | percent inhibition, MDA-MB-231 (Breast) ([5]; 1 ug/mL) | percent inhibition, MDA-MB-231 (Breast) ([5]; 10 ug/mL) | percent inhibition, MDA-MB-231 (Breast) ([5]; 25 ug/mL) | percent inhibition, RPMI-8226 (Multiple Myeloma) ([6]; 1 ug/mL) | percent inhibition, RPMI-8226 (Multiple Myeloma) ([6]; 10 ug/mL) | percent inhibition, RPMI-8226 (Multiple Myeloma) ([6]; 25 ug/mL) | percent inhibition, PC-3 ML (Prostrate) ([7]; 1 ug/mL) | percent inhibition, PC-3 ML (Prostrate) ([7]; 10 ug/mL) | percent inhibition, PC-3 ML (Prostrate) ([7]; 25 ug/mL) | percent inhibition, C8161 (Melanoma) ([8]; 1 ug/mL) | percent inhibition, C8161 (Melanoma) ([8]; 10 ug/mL) | percent inhibition, C8161 (Melanoma) ([8]; 25 ug/mL) | IC50 [9] [µM] | IC50 [10] [µM]
CN(C)c1cc(N)c(O)c2c1CC1CC3C(N(C)C)C(O)=C(C(N)=O)C(=O)C3(O)C(O)=C1C2=O (stereo not shown) [Compound 7, 9-Amino-7-dimethylamino-6-demethyl-6-deoxytetracycline H2SO4] | > 1000 | 300 | 335 | 64 | +18% | +41^B percent | +27% | +14^B percent | 12% | +2% | 0% | 0% | 3% | 7% | 14% | 16% | > 1000 | –
C[C@H]1c2c(N)ccc(O)c2C(=O)C2=C(O)[C@]3(O)C(=O)C(C(N)=O)=C(O)[C@@H](N(C)C)[C@@H]3[C@@H](O)[C@@H]21.O=S(=O)(O)O [Compound 12, 7-Amino-6-deoxy-5-hydroxytetracycline H2SO4] | > 1000 | – | 503 | 270 | – | – | – | – | – | – | – | – | – | +11% | +13% | +12% | > 1000 | > 1000
CC1c2c(N(C)C)ccc(O)c2C(=O)C2=C(O)C3(O)C(=O)C(C(N)=O)=C(O)C(N(C)C)C3C(O)C21 (stereo not shown) [Compound 15, 7-Dimethylamino-6-deoxy-5-hydroxy-tetracycline H2SO4] | 768 | 738 | 716 | 402 | – | – | – | – | – | – | – | – | – | – | – | – | 234 | > 1000
CC1c2ccc(C(C)(C)C)c(O)c2C(=O)C2=C(O)C3(O)C(=O)C(C(N)=O)=C(O)C(N(C)C)C3C(O)C21 (stereo not shown) [Compound 39, 9-tertbutyl-6-deoxy-5-hydroxytetracycline H2SO4] | 83 | 682 | – | 114 | 18^B percent | 29^B percent | 76^B percent | 5% | 10% | 46^B percent | 44^B percent | 67^B percent | 69^B percent | 10% | 11% | 24% | 186 | 860
CN(C)c1ccc(O)c2c1CC1CC3CC(O)=C(C(N)=O)C(=O)C3(O)C(O)=C1C2=O (stereo not shown) [Compound 41, 4-Dedimethylamino-7-dimethylamino-6-demethyl-6-deoxy-tetracycline H2SO4] | 403 | 54 | – | 250 | +8% | 3% | 2% | 7% | +6% | 14% | +4% | 4% | 4% | 2% | 8% | 6% | 889 | 478
CC1c2cccc(O)c2C(=O)C2=C(O)C3(O)C(=O)C(C(N)=O)=C(O)C([N+](C)(C)C)C3C(O)C21.[I-] (stereo not shown) [Compound 46, 6-deoxy-5-hydroxytetracycline-4-Methiodide] | 90 | 42 | – | 59 | 20^B percent | +5% | +1% | 7% | +11% | 12% | 20% | 16% | 27^B percent | 21% | 7% | 10% | 3800 | 194
CC1c2c(N(NC(=O)OCc3ccccc3)C(=O)OCc3ccccc3)ccc(O)c2C(=O)C2=C(O)C3(O)C(=O)C(C(N)=O)=C(O)C(N(C)C)C3C(O)C21.Cl (stereo not shown) [Compound 47, 7-(1,2-benzylcarboxyhydrazine)-6-deoxy-5-hydroxy-tetracycline HCl] | 60 | 68 | – | 88 | +17% | +16^B percent | 0% | 28% | 18% | 60^B percent | 3% | 3% | 5% | +30% | +4% | +2% | 117 | 318
CC1c2c(N)cc(C(C)(C)C)c(O)c2C(=O)C2=C(O)C3(O)C(=O)C(C(N)=O)=C(O)CC3C(O)C21.O=S(=O)(O)O (stereo not shown) [Compound 49, 7-Amino-9-tertbutyl-4-dedimethyl-6-deoxy-5-hydroxy-tetracycline-H2SO4] | 87 | 141 | – | 489 | 6% | +5% | +1% | 11% | +2% | 15% | 4% | +5% | 6% | 27^B percent | 7% | 30^B percent | 1570 | 372
CC1c2c([N+]#N)cc(C(C)(C)C)c(O)c2C(=O)C2=C(O)C3(O)C(=O)C(C(N)=O)=C(O)CC3C(O)C21 (stereo not shown) [Compound 50, 4-Dedimethylamino-9-tertbutyl-6-deoxy-5-hydroxytetracycline-7-diazonium H2SO4] | 40 | 48 | – | 34 | 7% | 0% | 2% | +14% | +8% | +13% | +14% | +17% | +10% | 5% | +2% | 1% | 2530 | 211
